{
  "source": "patent US11918693B2",
  "about": "“Ibuprofen and acetaminophen tablet” (GlaxoSmithKline Consumer Healthcare Holdings (US) LLC, priority 2019, dated 2024)",
  "tested_on": "patients with at least moderate pain after extraction of 3 third molar teeth",
  "assay": "Study 1: phase 2 single-dose dental pain study, analgesic efficacy and tolerability of 3 FDCs of IBU/APAP vs IBU 400 mg and placebo",
  "type": "in vivo, human",
  "conditions": "single oral dose, IBU dose 400 mg",
  "description": "Study 1 was a phase 2, 12-hour, 5-arm, randomized, double-blind, parallel group, in-patient, placebo-controlled study designed to determine the overall analgesic efficacy of 3 different FDCs of IBU/APAP compared with IBU 400 mg and placebo.\nAll study procedures were in compliance with the ethical principles originating in or derived from the Declaration of Helsinki and with all International Council for Harmonization Good Clinical Practice Guidelines, as well as local regulatory requirements. All patients provided written informed consent. Eligible patients were healthy males or females aged 16-40 years, inclusive, who had undergone extraction of 3 third molar teeth (with at least 2 having been partial or complete bony mandibular impactions) and had developed at least moderate pain within 5 hours of the oral surgery. Other entry criteria included: use of only the following preoperative medications/anesthetics: topical benzocaine, a short-acting parenteral local anesthetic (mepivacaine or lidocaine) with or without a vasoconstrictor and/or nitrous oxide; no contraindications to the study or rescue medications; and being sufficiently reliable, cooperative, and intelligent to record the requested information on the analgesic questionnaire form.\nUpon experiencing at least moderate pain, patients were randomized 1:3:3:3:3 to receive a single oral dose of placebo; IBU 400 mg; FDC IBU/APAP 200 mg/500 mg; FDC IBU/APAP 250 mg/500 mg; or FDC IBU/APAP 300 mg/500 mg.\nPatients could receive 2 additional doses of rescue medication at the study center. Patients were permitted to take rescue medication at any time but were encouraged to wait at least 1 hour after taking study medication to allow time for the medication to exert its effect. Patients who took rescue medication remained at the study site for the full duration of the study and continued to perform assessments.\nAt baseline, patients rated their pain severity using a categorical and a numerical pain severity rating (PSR) scale. The categorical PSR was a 4-point scale (none, mild, moderate, severe), with each category assigned a value from 0-3, respectively. The achievement of moderate pain at baseline was confirmed by a score of >50 mm on a 100-mm visual analog pain scale. Additionally, pain was assessed using an 11-point numerical PSR (0-10; 0=none to 10=worst possible pain).\nFollowing the administration of study medication, patients were followed and evaluated on site for 12 hours. During that time, study participants provided self-ratings of pain severity (on both categorical and numerical PSR scales as described above) and pain relief: using a 5-point categorical pain relief rating (PRR) scale (0=none, 1=a little, 2=some, 3=a lot, and 4=complete) at 0.25, 0.5, 1, 1.5, 2, 3, 4, 5, 6, 7, 8, 9, 10, 11, and 12 hours post-treatment, after taking study medication, immediately before taking rescue medication, or at time of study withdrawal (if either occurred).\nAdditional patient assessments included time to first perceptible relief (TFPR) and time to meaningful pain relief (TMPR) using the double-stopwatch method, in which the first stopwatch was pressed by the patient when pain relief was first perceived, and the second when that relief became meaningful. Duration of pain relief was measured by the time to treatment failure (i.e., the time of first dose of rescue medication or dropout due to lack of efficacy). At 12 hours or immediately before taking rescue medication for the first time, patients also provided a Patient Global Evaluation based on a 6-point categorical scale ranging from 0 (very poor) to 5 (excellent).\nThe primary endpoint was the time-weighted sum of pain relief and pain intensity difference (PID) scores from baseline (time 0) through 8 hours (SPRID[4]0-8) after dosing based on PRR and categorical PSR. […]",
  "data": [
    {"smiles": "CC(C)Cc1ccc(C(C)C(=O)O)cc1", "note": "(centres unmarked) [IBU, 2-(4-isobutylphenyl) propionic acid]", "values": [
      {"measurement": "Alveolar osteitis, treatment-emergent adverse event, %", "value": "(2.2) %"},
      {"measurement": "Dizziness, treatment-emergent adverse event, %", "value": "(7.6) %"},
      {"measurement": "Feeling hot, treatment-emergent adverse event, %", "value": "(4.3) %"},
      {"measurement": "Median time to first perceptible relief (TFPR)", "value": 24.9, "unit": "min"},
      {"measurement": "Median time to meaningful relief (TMPR)", "value": 56.2, "unit": "min"},
      {"measurement": "Median time to treatment failure (duration of relief)", "value": 10.4, "unit": "h"},
      {"measurement": "Nausea, treatment-emergent adverse event, %", "value": "(23.9) %"},
      {"measurement": "TOTPAR0-2, mean (time-weighted sum of pain relief rating scores over 0-2 hours)", "value": 4.0},
      {"measurement": "Tension headache, treatment-emergent adverse event, %", "value": "(4.3) %"},
      {"measurement": "Tremor, treatment-emergent adverse event, %", "value": "(2.2) %"},
      {"measurement": "Vomiting, treatment-emergent adverse event, %", "value": "(15.2) %"},
      {"measurement": "TOTPAR0-6, mean", "setting": "0-6 hours", "value": 14.3},
      {"measurement": "TOTPAR0-8, mean", "setting": "0-8 hours", "value": 18.4},
      {"measurement": "TOTPAR0-12, mean", "setting": "0-12 hours", "value": 23.9}
    ]}
  ]
}
